Reference: PMC10863392

Assay: Intramolecular Friedel-Crafts arylation (C(vinyl)-C(aryl) bond) of vinyl cation from vinyl tosylate; [Li]+[B(C6F5)4]- 10 mol%, LiH 5 equiv
Details: 1,2-dichlorobenzene, 16.7 mM, 140.0 °C

COc1ccc2c(c1)C(=C1CCCCC1)c1ccccc1N(S(=O)(=O)c1ccc(C)cc1)CC2 [SI-27 -> 12]
ring closure, isolated yield (from COc1ccc(CCN(c2ccccc2C(OS(=O)(=O)c2ccc(C)cc2)=C2CCCCC2)S(=O)(=O)c2ccc(C)cc2)cc1, 8-membered ring): 76%

Cc1ccc(S(=O)(=O)N2CCc3ccc(N(C)C)cc3C(=C3CCCCC3)c3ccccc32)cc1 [SI-24 -> 11]
ring closure, isolated yield (from Cc1ccc(S(=O)(=O)OC(=C2CCCCC2)c2ccccc2N(CCc2ccc(N(C)C)cc2)S(=O)(=O)c2ccc(C)cc2)cc1, 8-membered ring): 62%

CC(C)=C1c2ccccc2CCSc2ccccc21 [SI-14 -> 8]
ring closure, isolated yield (from CC(C)=C(OS(=O)(=O)c1ccc(C)cc1)c1ccccc1SCCc1ccccc1, 8-membered ring): 46%

CC(C)=C1c2ccccc2CCCN(S(=O)(=O)c2ccc(C)cc2)c2ccccc21 [SI-11 -> 6]
ring closure, isolated yield (from CC(C)=C(OS(=O)(=O)c1ccc(C)cc1)c1ccccc1N(CCCc1ccccc1)S(=O)(=O)c1ccc(C)cc1, 9-membered ring, 36.0 h): 82%

CC1=C(c2ccccc2)c2ccccc2CCCC1 [precursor of 20 (n.d.)]
ring closure, isolated yield (from CC(CCCCc1ccccc1)=C(OS(=O)(=O)c1ccc(C)cc1)c1ccccc1, 8-membered ring): 0%

CC(C)=C1c2ccccc2CCCOc2ccccc21 [SI-45 -> 10]
ring closure, isolated yield (from CC(C)=C(OS(=O)(=O)c1ccc(C)cc1)c1ccccc1CCCOc1ccccc1, 9-membered ring, 48.0 h): 65%

Cc1ccc(S(=O)(=O)N2CCc3c(Cl)cccc3C(=C3CCCCC3)c3ccccc32)cc1 [1 -> 2]
ring closure, isolated yield (from Cc1ccc(S(=O)(=O)OC(=C2CCCCC2)c2ccccc2N(CCc2ccccc2Cl)S(=O)(=O)c2ccc(C)cc2)cc1, 8-membered ring, 18.0 h): 73%

Cc1ccc(S(=O)(=O)N2CCCCc3ccccc3C(=C3CCCCC3)c3ccccc32)cc1 [precursor of 7 (n.d.)]
ring closure, isolated yield (from Cc1ccc(S(=O)(=O)OC(=C2CCCCC2)c2ccccc2N(CCCCc2ccccc2)S(=O)(=O)c2ccc(C)cc2)cc1, 10-membered ring): 0%

Cc1ccc(S(=O)(=O)N2CCCc3ccc(C(F)(F)F)cc3C(=C3CCCCC3)c3ccccc32)cc1 [precursor of 14 (n.d.)]
ring closure, isolated yield (from Cc1ccc(S(=O)(=O)OC(=C2CCCCC2)c2ccccc2N(CCCc2ccc(C(F)(F)F)cc2)S(=O)(=O)c2ccc(C)cc2)cc1, 9-membered ring): 0%

Cc1ccc(S(=O)(=O)N2CCc3sccc3C(=C3CCCCC3)c3ccccc32)cc1 [SI-38 -> 18]
ring closure, isolated yield (from Cc1ccc(S(=O)(=O)OC(=C2CCCCC2)c2ccccc2N(CCc2cccs2)S(=O)(=O)c2ccc(C)cc2)cc1, 8-membered ring, 20.0 h): 73%

COc1ccc2c(c1)N(S(=O)(=O)c1ccc(C)cc1)CCc1ccccc1C2=C(C)C [SI-46 -> 16]
ring closure, isolated yield (from COc1ccc(C(OS(=O)(=O)c2ccc(C)cc2)=C(C)C)c(N(CCc2ccccc2)S(=O)(=O)c2ccc(C)cc2)c1, 8-membered ring, 24.0 h): 78%

CC(C)=C1c2ccccc2CCN(S(=O)(=O)c2ccc(C)cc2)c2sc3c(c21)CCCC3 [SI-42 -> 19 (120 C)]
ring closure, isolated yield (from CC(C)=C(OS(=O)(=O)c1ccc(C)cc1)c1c(N(CCc2ccccc2)S(=O)(=O)c2ccc(C)cc2)sc2c1CCCC2, 8-membered ring, 20.0 h): 85%

CC(C)=C1c2cc(O[Si](C)(C)C(C)(C)C)ccc2CCN(S(=O)(=O)c2ccc(C)cc2)c2ccccc21 [SI-33 -> 13]
ring closure, isolated yield (from CC(C)=C(OS(=O)(=O)c1ccc(C)cc1)c1ccccc1N(CCc1ccc(O[Si](C)(C)C(C)(C)C)cc1)S(=O)(=O)c1ccc(C)cc1, 8-membered ring): 79%

CC(C)=C1c2ccccc2CCCc2ccccc21 [SI-20 -> 9]
ring closure, isolated yield (from CC(C)=C(OS(=O)(=O)c1ccc(C)cc1)c1ccccc1CCCc1ccccc1, 8-membered ring): 81%

COc1ccc(CC2Cc3cc(OC)ccc3C(=C(C)C)c3ccccc3S2)cc1 (stereo not drawn) [28 -> 29a (NMR yield)]
ring closure, isolated yield (from COc1ccc(CC(Cc2cccc(OC)c2)Sc2ccccc2C(OS(=O)(=O)c2ccc(C)cc2)=C(C)C)cc1, 8-membered ring): 25%

CC(C)=C1c2ccccc2CCN(S(=O)(=O)c2ccc(C)cc2)c2cc(C(F)(F)F)ccc21 [precursor of 17 (n.d., 160 C)]
ring closure, isolated yield (from CC(C)=C(OS(=O)(=O)c1ccc(C)cc1)c1ccc(C(F)(F)F)cc1N(CCc1ccccc1)S(=O)(=O)c1ccc(C)cc1, 8-membered ring): 0%

CC(C)=C1c2ccccc2CCN(S(=O)(=O)c2ccc(C)cc2)c2ccccc21 [SI-16 -> 5]
ring closure, isolated yield (from CC(C)=C(OS(=O)(=O)c1ccc(C)cc1)c1ccccc1N(CCc1ccccc1)S(=O)(=O)c1ccc(C)cc1, 8-membered ring, 36.0 h): 56%

Cc1ccc(S(=O)(=O)N2CCc3ccc(Br)cc3C(=C3CCCC3)c3ccccc32)cc1 [SI-36 -> 15]
ring closure, isolated yield (from Cc1ccc(S(=O)(=O)OC(=C2CCCC2)c2ccccc2N(CCc2ccc(Br)cc2)S(=O)(=O)c2ccc(C)cc2)cc1, 8-membered ring): 79%
